Measured values as given in patent US9669004B2 (THE ADMINISTRATORS OF THE TULANE EDUCATIONAL FUND, priority 2010, dated 2017).
“Also recorded” adds a separate entry of the source.

Columns and labels:
[1] = tested on: ERE transcriptional activity in MCF-7 cells; test: ERE luciferase reporter gene assay, estrogenic activity; assay type: cell-based; details: for estrogenic (ERE) activity, in words: MCF-7, compound alone; for ERE transcriptional activity induced: 25 μM
Experimental: MCF-7 cells were transiently transfected with pGL2-ERE2x-TK-luciferase plasmid. […] While this order varied slightly as analog concentrations were increased further to 25 μM, several trends have emerged in the dose-dependent data. […] Second, shorter alkyl groups appear to have less effect on the reduction of ER agonist activity than their longer, bulkier counterparts.

[2] = tested on: E2 stimulation on ERE transcriptional activity in MCF-7 cells; test: ERE luciferase reporter gene assay in the presence of 0.1 nM E2, antiestrogenic activity; assay type: cell-based; details: for inhibition at 25 µM: Homo sapiens, MCF7, 25 μM (highest concentration) plus 0.1 nM E2, read-out: reduction of estradiol-dependent luciferase activity
Experimental: MCF-7 cells were transiently transfected with pGL2-ERE2x-TK-luciferase plasmid. […] The luciferase activities of the treated cells were then measured by the ERE reporter gene assay.

MCF-7 cells = test: clonogenic (colony) assay; assay type: cell-based
Experimental: MCF-7 cells were placed in phenol red-free DMEM supplemented with 5% dextran-coated charcoal-treated FBS for 48 h before plating. MCF-7 cells (1000) were plated in six well plates. […] Colonies of >50 cells were counted as positive. Results are normalized to percentage of clonogenic survival from DMSO control cells.

[3] = tested on: progesterone receptor (PgR) gene expression in MCF-7 cells; test: PgR mRNA expression by quantitative real time RT-PCR; assay type: cell-based; details: for level of PgR expression: ligand in the presence of 0.1 nM E2, MCF-7 (E2 alone 5-fold); for increase in PgR expression compared with control: ligands only, vs DMSO
Source text: Total RNA was isolated from MCF-7 cells, reverse-transcribed into cDNA and subjected to real-time RT-PCR analysis for quantification. […] Results are expressed as the mean unit±SEM.

MCF-7 cell tumorigenesis = test: estrogen stimulated MCF-7 cell tumorigenesis xenograft model; assay type: in vivo, Nu/Nu mice; details: day 37 post cell injection; mean±SEM; control 351.17±43.88
Experimental: 4-6 week old ovariectomized female Nu/Nu mice were injected bilaterally in the mammary fat pad (MFP) with 5×10^6 MCF-7 cells in matrigel (reduced factor). […] Tumors were allowed to form and at day 15 post cell injection mice were randomized into groups (n=5). Animals were treated daily with i.p. injections of either vehicle (1:5 DMSO/PBS) or analog 2 (50 mg/kg/animal). Tamoxifen animals were implanted with a slow release tamoxifen pellet in the lateral area of the neck (opposite side from E2 pellet). ICI animals were given a onetime i.p. injection of ICI 182,780 (5 mg in castor oil). Tumor size was measured 3 times weekly using digital calipers. Data represented as mean tumor volume±SEM.
Due to the anti-estrogenic effects of analog 2 on MCF-7 cells observed in the in vitro biological assays, this analog was selected for further testing of estrogen stimulated MCF-7 cell tumorigenesis using a xenograft model. Ovariectomized female immunocompromised mice were injected with MCF-7 cells and supplemented with exogenous estrogen pellets. Once tumors were palpable animals were treated with analog 2, tamoxifen, or ICI and tumor volume compared to vehicle control animals.
Xenograft experiments were conducted using previously published protocols. Briefly, 4-6 week old female ovariectomized NU/Nu mice were obtained from Charles River Laboratories (Wilmington, Mass.). The animals were allowed a period of adaptation in a sterile and pathogen-free environment with phytoestrogen-free food and water ad libitum. MCF-7 cells were harvested in the exponential growth phase using a PBS/EDTA solution and washed. Mice were injected bilaterally in the mammary fat pad (M.F.P) with 5×10^6 viable cells suspended in 50 μL sterile PBS mixed with 100 μL Matrigel (reduced factor; BD Biosciences, Bedford, Mass.). […] All procedures in animals were carried out under anesthesia using a mix of isofluorane and oxygen delivered by mask. […] Tumor size was measured 3 times weekly using digital calipers. The volume of the tumor was calculated using the following formula: 4/3 πLS^2 (L=larger radius; S=shorter radius). […]

BT-549 = test: transwell migration assay; assay type: cell-based; details: 10 μM, 24 hours
Experimental: (§1) TNBC cells were seeded (2.5×10^4 in 500 μl 10% DMEM) in the upper chamber of a 24 well transwell system. DMEM supplemented with FBS (10%) was used as a chemoattractant in the lower wells. After 24 hours of treatment (DMSO or analog 2 10 μM), membranes were scrubbed, stained with 0.1% crystal violet, and the number of migrated cells analyzed by microscopy. Data represented as normalized means of triplicate experiments±SEM. […] The TNBC phenotype is characterized by highly aggressive and migratory cells. The ability of analog 2 to inhibit this migration indicates its potential as a novel anti-metastatic therapeutic in the triple-negative breast carcinoma setting.

MDA-MB-157 = test: transwell migration assay; assay type: cell-based; details: 10 μM, 24 hours
Experimental: as §1

MDA-MB-231 = test: transwell migration assay; assay type: cell-based; details: 10 μM, 24 hours
Experimental: as §1

MDA-MB-231 cells = test: MDA-MB-231 xenograft tumor volume; assay type: in vivo, CB-17/SCID mice
Experimental: 4-6 week old female CB-17/SCID mice were allowed a period of adaptation in a sterile and pathogen-free environment with phytoestrogen-free food and water ad libitum. MDA-MB-231 cells were harvested in the exponential growth phase using a PBS/EDTA solution and washed. Mice were injected bilaterally in the mammary fat pad (MFP) with 5×10^6 viable cells suspended in 50 μL sterile PBS mixed with 100 μL Matrigel (reduced factor; BD Biosciences, Bedford, Mass.). Tumors were allowed to form, and at day 4 post cell injection mice were randomized into groups of 5 mice each. Mice were treated daily with intra-peritoneal (IP) injections of either vehicle (DMSO) or analog 2 (50 mg/kg/animal/day) for 14 days. External tumor size was measured using digital calipers and tumor volume calculated using the formula: 4/3 π LS^2 (L=larger radius; S=shorter radius). At necropsy, animals were euthanized by cervical dislocation after exposure to CO2. […] This trend continued until the mice were euthanized at day 18, where tumor volume for control mice averaged 188±18.78 mm^3 and the tumor volume for mice treated with analog 2 averaged 91.11±10.15 mm^3.

[4] = tested on: AKT and mTOR phosphorylation in MDA-MB-231 cells; test: immunoblot of phospho-AKT and mTOR; assay type: cell-based
Experimental: The effects of analog 2 on TNBC may be mediated via alterations in the PI3K/AKT/mTOR pathway. After 72 hours in 5% charcoal-stripped fetal bovine serum (CSFBS) DMEM phenol-free medium, MDA-MB-231 cells were re-fed with either medium-containing vehicle, analog 2 (10 μM, 4 hours), analog 2 (4 hours) followed by EGF stimulation (50 ng/mL, 30 minutes), or EGF alone (30 minutes). Membranes were probed with primary antibodies according to manufacturers' protocol. Antibodies: phosho-AKT (S473 and T308), mTOR ([…]), and corresponding total protein antibodies (Cell Signaling), using rho as a loading control (Santa Cruz).

CC1(C)C=Cc2c(ccc3c(=O)c(-c4ccc(O)cc4)coc23)O1 [compound 2, 3-(4-Hydroxyphenyl)-8,8-dimethyl-8H-pyrano[2,3-f]chromen-4-one]
estrogenic (ERE) activity, in words [1]: little or no estrogen activity; also recorded: negligible ERE activity | blocking of ERE activity, in words ([2]; 25 μM plus 0.1 nM E2): completely blocking ERE activity | clonogenicity in the presence of E2, in words (MCF-7 cells; 10 μM plus 0.1 nM estradiol): inhibit the clonogenicity of MCF-7 cells completely | cell clonogenicity, in words (MCF-7 cells; 10 μM, without E2): completely blocked cell clonogenicity | inhibition at 1 µM (MCF-7 cells; Homo sapiens, MCF7, read-out: inhibition of clonogenicity): 15% | level of PgR expression [3]: 3 fold | PgR expression compared with DMSO, in words ([3]; ligand only, MCF-7): decrease in PgR expression | tumor volume (MCF-7 cell tumorigenesis): 241.53±68.29 mm3 | number of migrated cells compared to control (normalized to 100%) (BT-549): 0.08% | number of migrated cells compared to control (normalized to 100%) (MDA-MB-157): 25.57% | number of migrated cells compared to control (normalized to 100%) (MDA-MB-231): 0% | tumor volume (MDA-MB-231 cells; day 18, 50 mg/kg/animal/day IP for 14 days, control 188±18.78): 91.11±10.15 mm^3 | tumor volume vs control, in words (MDA-MB-231 cells; seven days after cell injection, three days' treatment): statistically less than those of control mice | effect on EGF-stimulated AKT and mTOR phosphorylation, in words ([4]; 10 μM 4 hours then EGF 50 ng/mL 30 minutes): significantly abrogate the effects of EGF stimulation on AKT and mTOR phosphorylation | phospho-levels of AKT at S473 and T308, in words ([4]; 10 μM, 4 hours): significant decreases

CC/C(=C(\c1ccccc1)c1ccc(OCCN(C)C)cc1)c1ccccc1 [tamoxifen]
tumor volume (MCF-7 cell tumorigenesis): 178.12±41.18 mm3

CCCCOc1ccc2c(=O)c(-c3ccc(O)cc3)coc2c1 [3e, 7-Butoxy-3-(4-hydroxyphenyl)chromen-4-one]
inhibition at 25 µM [2]: < 47%

CCCCCCOc1ccc2c(=O)c(-c3ccc(O)cc3)coc2c1 [3h, 7-Hexyloxy-3-(4-hydroxyphenyl)chromen-4-one]
inhibition at 25 µM [2]: < 47%

C[C@]12CC[C@@H]3c4ccc(O)cc4CC[C@H]3[C@@H]1CC[C@@H]2O [E2, 17β-estradiol, reference compound]
increase in clonogenicity of MCF-7 cells (MCF-7 cells; 0.1 nM, vs DMSO treated controls): approximately 3 fold | increase in PgR expression compared with control ([3]; MCF-7): 5 fold

CCCOc1ccc2c(=O)c(-c3ccc(O)cc3)coc2c1 [3c, 3-(4-Hydroxyphenyl)-7-propoxychromen-4-one]
ERE transcriptional activity induced ([1]; MCF-7, normalized to E2 (100)): 38.4% | inhibition at 25 µM [2]: < 47%

COc1ccc2c(=O)c(-c3ccc(O)cc3)coc2c1 [3a, 3-(4-Hydroxyphenyl)-7-methoxychromen-4-one]
ERE activity ([1]; 10 μM, MCF-7, normalized to E2 (100)): 38% | ERE transcriptional activity induced ([1]; MCF-7, normalized to E2 (100)): 70.9% | inhibition at 25 µM [2]: < 47% | increase of cell proliferation (clonogenicity) (MCF-7 cells; 1 μM, without E2, vs DMSO): 43% | increase in clonogenicity of MCF-7 cells (MCF-7 cells; 10 μM, without E2, vs DMSO): 24% | level of PgR expression [3]: 4 fold | increase in PgR expression compared with control ([3]; MCF-7): 3 fold

O=c1c(-c2ccc(O)cc2)coc2cc(OC3CCCC3)ccc12 [3g, 7-Cyclopentyloxy-3-(4-hydroxyphenyl)chromen-4-one]
estrogenic (ERE) activity, in words [1]: negligible ERE activity | inhibition at 25 µM [2]: > 60%

C[C@]12CC[C@@H]3c4ccc(O)cc4C[C@@H](CCCCCCCCC[S+]([O-])CCCC(F)(F)C(F)(F)F)[C@H]3[C@@H]1CC[C@@H]2O (stereo partly drawn) [ICI 182,780]
tumor volume (MCF-7 cell tumorigenesis): 130.95±23.49 mm3

CCOc1ccc2c(=O)c(-c3ccc(O)cc3)coc2c1 [3b, 3-(4-Hydroxyphenyl)-7-ethoxychromen-4-one]
ERE transcriptional activity induced ([1]; MCF-7, normalized to E2 (100)): 80.4% | inhibition at 25 µM [2]: < 47%

O=c1c(-c2ccc(O)cc2)coc2cc(O)ccc12 [daidzein, reference compound]
estrogenic (ERE) activity, in words [1]: more potent estrogenic activity than any of its derivatives | increase in clonogenicity of MCF-7 cells (MCF-7 cells; 1 μM, without E2, vs DMSO): over 3 fold | increase in clonogenicity of MCF-7 cells (MCF-7 cells; 10 μM, without E2, vs DMSO): 2.5 times | level of PgR expression [3]: 5 fold | increase in PgR expression compared with control ([3]; MCF-7): 3 fold

CC(C)Oc1ccc2c(=O)c(-c3ccc(O)cc3)coc2c1 [3d, 3-(4-Hydroxyphenyl)-7-isopropoxychromen-4-one]
inhibition at 25 µM [2]: > 60%

CC(C)COc1ccc2c(=O)c(-c3ccc(O)cc3)coc2c1 [3f, 3-(4-Hydroxyphenyl)-7-isobutoxychromen-4-one]
estrogenic (ERE) activity, in words [1]: negligible ERE activity | inhibition at 25 µM [2]: > 60%
